{
  "source": "ChEMBL document CHEMBL1142931",
  "about": "“Vascular disrupting agents” (Bioorg Med Chem, 2007)",
  "species": "Homo sapiens",
  "experiment": "Half life in human assessed as ZD-6126-phenol",
  "assay_type": "ADME, organism-based",
  "conditions": "in vivo",
  "data": [
    {"smiles": "COc1cc2c(c(OC)c1OC)-c1ccc(OP(=O)(O)O)cc1[C@@H](NC(C)=O)CC2", "note": "[ZD-6126]", "values": [
      {"measurement": "t1/2", "value": 2, "unit": "h"}
    ]}
  ]
}
